# Laboratory results published in US5278187A, “Pharmaceutical compositions” (British Technology Group Ltd., priority 1985, dated 1994).
# Where two headings read alike, the source gives them in different places.
# Legend:
# [1] = system: human adenocarcinoma cells of the colon (LOVO); assay: Cytotoxic effect on LOVO cells, colony formation in culture; type: cell-based; settings: dose required to reduce by 50% the number of colonies, 37° C., 12-14 days, read-out: ID50 LOVO
# Method: (§1) (A) The cytotoxic effects of a variety of compounds of formula (II) on human adenocarcinoma cells of the colon (LOVO) and human mammary epithelial tumor cells (MCF7) grown in culture were studied. A range of doses of the drugs was added on day one to replicate cultures of several hundred cells each, which were then incubated at 37° C. for 12-14 days. The cultures were then fixed and stained and the numbers of colonies per dish counted. The results obtained are shown in Table 1, the individual compounds being identified by the groups R1, R2 and R3 present therein, the last mentioned compound being the compound of formula (I) having R1 =H and R2 =CH3 which is used as a control. The results are expressed in terms of the ID50 which is the dose required to reduce by 50% the number of colonies growing up in the drug-treated cultures compared with untreated controls.
# [2] = system: human mammary epithelial tumor cells (MCF7); assay: Cytotoxic effect on MCF7 cells, colony formation in culture; type: cell-based; settings: dose required to reduce by 50% the number of colonies, 37° C., 12-14 days, read-out: ID50 MCF7
# Method: as §1
# Water solubility = type: physicochemical
# From the text: By modification of the nature of the ester groups it is possible to alter the water solubility, lipophilicity and rate of conversion to the active cytotoxic molecules (I). […] Similarly, increased lipophilicity may be obtained in these prodrugs by the introduction of, for example, hydrocarbon groupings such as isobutyl or benzyl and this is reflected by the relatively high Rf values in a 50% v/v chloroform/ethanol/SiO2 thin layer chromatography system as recorded in the Examples given hereinafter. An increased lipophilicity favours better absorption and changes in tissue distribution such as greater penetration of the central nervous system. The more lipophilic products are also the most attractive candidates for the percutaneous treatment of psoriasis. Further, depending upon whether R3 is an electron-withdrawing group, for example benzyl, propargyl or carbethoxymethyl, or an electron-repelling group, for example isobutyl, hydroxyethyl or methoxyethyl, the rate of conversion of the compound (II) to the corresponding compound (I) can be speeded up or slowed down. Thus, by providing some control over the water solubility, lipophilicity and rate of generation of the active species, the prodrug compounds of the present invention provide the ability to modify the tissue distribution and pharmacodynamics of the dioxopiperazine drugs with consequential therapeutic benefit to the patient.
# [3] = Incubation under physiological conditions: formation of (I) from the 14C-labelled dimethyl ester and hydrolysis of the diimide (HPLC); type: physicochemical; settings: pH 7.2, 37° C.
# Method: (B) The rate of formation of the active antitumor agent (I) having R1 […] R2 =H from the corresponding ^14 C-labelled dimethyl ester (II) (R1 =R2 =H, R3 =CH3) following incubation under physiologically conditions, i.e. at 37° C. and pH and 7.2 in normal (0.15M) phosphate buffered saline [Practical Immunology, Hudson and hay (editors), Blackwell Scientific Publications, Second Edition, 1980, page 336] was studied. Sample of the incubation mixture were fractionated at different time intervals using HPLC with a reverse phase ODS column and an aqueous methanol gradient elution system.
# Absorption by mouth = type: in vivo; settings: oral; in words
# [4] = esters corresponding to the diimide (I) in which R1 =R2 =H, read-out: water solubilities
SMILES,IC50 [1] [µM],IC50 [2] [µM],also measured
"NC(=O)CN(CCN(CC(N)=O)CC(=O)OCC(=O)O)CC(=O)OCC(=O)O [R1=H, R2=H, R3=CH2 CO2 H, NN'-Di-(carboxymethyloxycarbonylmethyl)-NN'-diaminocarbonylmethyl-1,2-diamonoethane]",67,46,
"CC(CN(CC(N)=O)CC(=O)OCc1ccc([N+](=O)[O-])cc1)N(CC(N)=O)CC(=O)OCc1ccc([N+](=O)[O-])cc1 (racemic) [R1=CH3, R2=H, R3=p-NO2 --CH2 C6 H5, dl-NN'-Di-p-nitrobenzyloxycarbonylmethyl-NN'-diaminocarbonylmethyl-1,2-diaminopropane]",14,21,
"CC(CN1CC(=O)NC(=O)C1)N1CC(=O)NC(=O)C1 (stereo not drawn) [R1=CH3, R2=H, cyclic imide, reference compound]",18,17,
"NC(=O)CN(CCN(CC(N)=O)CC(=O)OCCO)CC(=O)OCCO [R1=H, R2=H, R3=CH2 CH2 OH, NN'-Di-(2-hydroxyethoxy)carbonylmethyl-NN'-diaminocarbonylmethyl-1,2-diaminoethane]",,,solubility (Water solubility; [4]): > 20 mg/mL
"CC(CN(CC(N)=O)CC(=O)OCc1ccccc1[N+](=O)[O-])N(CC(N)=O)CC(=O)OCc1ccccc1[N+](=O)[O-] (racemic) [R1=CH3, R2=H, R3=o-NO2 --CH2 C6 H5, dl-NN'-Di-o-nitrobenzyloxycarbonylmethyl)-NN'-diaminocarbonylmethyl-1,2-diaminopropane]",11,16,
"O=C1CN(CCN2CC(=O)NC(=O)C2)CC(=O)N1 [diimide (I) R1=R2=H, 1,2-bis-(3,5-dioxopiperazin-1-yl)ethane, reference compound]",,,"solubility (Water solubility; 20° C., pH 7.2, read-out: water solubility): ~0.1 mg/mL; half-life ([3]; normal (0.15M) phosphate buffered saline, read-out: half life (hydrolysis to an inactive form) (converted)): ~12 h; absorption by mouth (Absorption by mouth): not being well absorbed by mouth"
"CC(CN(CC(N)=O)CC(=O)OCc1ccccc1)N(CC(N)=O)CC(=O)OCc1ccccc1 (racemic) [R1=CH3, R2=H, R3=CH2 C6 H5, dl-NN'-Dibenzyloxycarbonylmethyl-NN'-diaminocarbonylmethyl-1,2-diaminopropane]",17,22,
"CCCCOCCOC(=O)CN(CCN(CC(N)=O)CC(=O)OCCOCCCC)CC(N)=O [R1=H, R2=H, R3=CH2 CH2 O(CH2)3 CH3, NN'-Di-(2-n-butoxyethoxy)carbonylmethyl-NN'-diaminocarbonylmethyl-1,2-diaminoethane]",47,36,
"COC(=O)CN(CCN(CC(N)=O)CC(=O)OC)CC(N)=O [R1=H, R2=H, R3=CH3, NN'-Dimethoxycarbonylmethyl-NN'-diaminocarbonylmethyl-1,2-diaminoethane]",28,39,"solubility (Water solubility; [4]): > 20 mg/mL; formation of the active cytotoxic species (I) by cyclisation of the bis-ester ([3]; 0.15M phosphate buffered saline, the Figure, in words): leads to a sustained concentration of the active cytotoxic species"
"CC(C)COC(=O)CN(CCN(CC(N)=O)CC(=O)OCC(C)C)CC(N)=O [R1=H, R2=H, R3=CH2 CH(CH3)2, NN'-Di-isobutoxycarbonylmethyl-NN'-diaminocarbonylmethyl-1,2-diaminoethane]",103,121,
"C[C@H]([C@H](C)N(CC(N)=O)CC(=O)OCC(=O)O)N(CC(N)=O)CC(=O)OCC(=O)O [R1=CH3, R2=CH3, R3=CH2 CO2 H, meso-NN'-Di-(carboxymethyloxycarbonylmethyl)-NN'-diaminocarbonylmethyl-2,3-diaminobutane]",0.2,1.1,
